Structures can show the parent of a compound that is named as a salt.

Common to all, as to format: cell-based
The subject of one test is all test organisms. The experiment in a line: MIC, micro broth dilution (summary in text). Conditions: planktonic cells, read-out: MICs ranging over all test organisms. As to the method: An assay was made using a minimum inhibitory concentration (MIC) and minimum bactericidal concentration (MBC) and minimum fungicidal concentration (MFC) determination. The MIC was determined by the micro broth dilution method in 96-well plates. […] A 10 μL containing 1×10^5 bacterial cells or 2×10^3 fungal cells were added to each well. The inoculated plates were covered with a lid, sealed with Parafilm, and incubated for 24 h at 37° C. with slight rocking on a tilting platform shaker. After incubation, the optical density at 600 nm (OD 600) of the cultures in each well was measured using an xMark™ Microplate Absorbance Spectrophotometer (Bio-Rad). The MIC was defined as the lowest concentration of antimicrobial compound at which the culture OD600 values were similar to uninoculated control wells. MBCs and MFCs were determined by transferring 100 μL from each well with no apparent growth onto appropriate agar plates, followed by incubation for 24 h at 37° C.

Test [1] has as its system Staphylococcus aureus ON89. Nature of the test: MBC/MFC determination. Conditions: alone. How it is done:
(§1) An assay was made using a minimum inhibitory concentration (MIC) and minimum bactericidal concentration (MBC) and minimum fungicidal concentration (MFC) determination. The MIC was determined by the micro broth dilution method in 96-well plates. Serial two-fold dilutions of tetrasodium EDTA (from 2% to 0.015%), ethanol (from 50% to 0.1%) and chlorhexidine HCl (from 100 μg/mL to 0.025 μg/mL) were prepared in MH broth with a final volume of 90 μL per well. A 10 μL containing 1×10^5 bacterial cells or 2×10^3 fungal cells were added to each well. The inoculated plates were covered with a lid, sealed with Parafilm, and incubated for 24 h at 37° C. with slight rocking on a tilting platform shaker. After incubation, the optical density at 600 nm (OD 600) of the cultures in each well was measured using an xMark™ Microplate Absorbance Spectrophotometer (Bio-Rad). […] MBCs and MFCs were determined by transferring 100 μL from each well with no apparent growth onto appropriate agar plates, followed by incubation for 24 h at 37° C.

Another test has as its system Serratia marcescens SK2. The experiment in a line: MBC/MFC determination. To be noted: alone. How it is done:
as §1

In a further test the test system is Escherichia coli ON29. The experiment in a line: MBC/MFC determination. To be noted: alone. How it is done: as §1
Test [2] deals with Stenotrophomonas maltophilia ON17. The experiment in a line: MBC/MFC determination. Conditions: alone. As to the method:
as §1

Test [3] concerns Staphylococcus epidermidis ON170. Nature of the test: MBC/MFC determination. Conditions: alone. How it is done:
as §1

A further test has as its system Candida albicans SK4b. Nature of the test: MBC/MFC determination. Conditions: alone. As to the method: as §1

Regarding `[H]/N=C(\N/C(=N/[H])NCCCCCCNC(=N)NC(=N)Nc1ccc(Cl)cc1)Nc1ccc(Cl)cc1` [Chlorhexidine HCl, 1,6-bis(4′-chlorophenylbiguanide) hexane], the MIC with all test organisms lay in the range of 0.1 to 50 µg/mL. The MBC/MFC stood at 0.8 µg/mL in test [1]; 25 µg/mL against Serratia marcescens SK2; 0.8 µg/mL with Escherichia coli ON29; 3.125 µg/mL in test [2]; 0.8 µg/mL in test [3]; 3.125 µg/mL against Candida albicans SK4b.
`O=C([O-])CN(CCN(CC(=O)[O-])CC(=O)[O-])CC(=O)[O-].[Na+].[Na+].[Na+].[Na+]` [EDTA, tetrasodium EDTA]: the MBC/MFC in test [1] worked out at 1 % w/v; against Serratia marcescens SK2 it was 2 % w/v; against Escherichia coli ON29, 1 % w/v; in test [2], 1 % w/v; in test [3] it was 0.5 % w/v; in the test with Candida albicans SK4b it was 1 % w/v.
Regarding `CCO` [Ethanol, ethanol], the MBC/MFC turned out to be 25 % w/v in test [1]; 12.5 % w/v against Serratia marcescens SK2; 25 % w/v against Escherichia coli ON29; 6.25 % w/v in test [2]; 6.25 % w/v in test [3]; 6.25 % w/v against Candida albicans SK4b.

Values taken from US20230263757A1, “DISINFECTING WIPE KIT FOR CENTRAL VENOUS ACCESS DEVICES” (SterileCare Inc., priority 2022, published 2023).
